The values that follow come from paper PMC8434134, “Biflavonoids from Selaginella doederleinii as Potential Antitumor Agents for Intervention of Non-Small Cell Lung Cancer” (Molecules, 2021).

The term IC50 denotes the midpoint of a concentration-inhibition curve. Lower therefore signals higher potency.

Test [1] concerns A549 cells. The experiment in a line: FITC-Annexin V/PI apoptosis assay by flow cytometry. The following applies: 3 μM, 24 h. It counts as cell-based, human. Here is the method:
Subsequently, to further verify the apoptosis induction potential of compounds 1–3, quantification of Annexin V-FITC/PI double positive cells was performed using flow cytometry analysis. A549 cells were incubated with indicated compounds, and the percentages of apoptotic A549 cells were determined by FITC-Annexin V and PI staining and flow cytometry.
Cells were incubated in six-well plates (1 × 10^5/well) and treated with vehicle control (i.e., 1% DMSO in buffer) or compounds 1–3 at 3 μM for 24 h, respectively. The collected cells were harvested, washed with PBS, and then stained with FITC-Annexin-V and PI. Apoptosis was determined with flow cytometry.
For orientation: In flow cytometry, cells or beads pass a laser one at a time.

The subject of test [2] is H1299 cells. Put plainly: MTT antiproliferative assay, H1299. The test is classed as cell-based, human. The following applies: mean of n = 3. From the text: (§1) To evaluate the anti-NSCLC activity of compounds 1–5, we tested their inhibitory effect on the proliferation of two NSCLC cell lines (A549 and H1299) as well as human normal embryonic lung cell line MRC-5 by the MTT assay using Cis-platin (DDP) as a positive control. […] Among them, compounds 1–3 were further studied for their potential apoptosis-mediated death of A549 cells because of their promising antiproliferative activity against NSCLC cells.
(§2) Human lung carcinoma cell lines (A549), human lung adenocarinoma epithelial cell lines (H1299) and human normal embryonic lung cell lines (MRC-5) were purchased from the Chinese Academy of Sciences (Shanghai). H1299 and MRC-5 cells were maintained in RPMI1640 medium, and A549 cell lines were maintained in MEN medium. Both media were supplemented with 10% fetal bovine serum. All of the cell lines were grown at 37 °C in a 5% CO2 atmosphere. The cell lines mentioned above were checked for mycoplasma contamination, and no contamination was observed.
(§3) Cytotoxicity of test compounds was assessed by the MTT assay. A549, H1299 and MRC-5 cells at a final density (3000 cells/well) were placed in 96-well cell plates and treated with or without different concentrations of the test compounds for 24 h. At the end of the treatment, 3-(4,5-dimethyl-2-thiazolyl)-2,5-diphenyl-2-H-tetrazolium bromide (MTT, […], 5 mg/mL) was added into each well, and the cells were further incubated for 4 h. The resulting formazan crystals were dissolved in […] of DMSO and the absorbance was read spectrophotometrically at 570 nm using an enzyme-linked immunosorbent assay plate reader. Experiments were conducted in triplicate. Inhibition rate (%) = [(Acontrol − Atreated)/Acontrol] × 100%. IC50 value represents the half of maximal inhibitory concentration.
(Tetrazolium dyes change colour on reduction, which living cells bring about.)

In test [3] the test system is MRC-5 cells. The experiment in a line: MTT cytotoxicity assay, non-cancer MRC-5. It counts as cell-based. The following applies: mean of n = 3, non-cancer cells.
Text: as §1, §2, §3

Test [4] has as its system A549 cells. The experiment in a line: MTT antiproliferative assay, A549. The following applies: mean of n = 3. It counts as cell-based, human.
Text: as §1, §2, §3

In test [5] the test system is cleaved caspase-3. Put plainly: Western blot, cleaved caspase-3 level in A549 cells. The test is classed as cell-based, human. The note with it: 3 μM, 24 h, β-actin as control. Here is the method: (§4) Furthermore, to elucidate the mechanism underlying the apoptosis-inducing activity of compounds 1–3, we examined their regulatory effect on the expression of caspase-3/cleaved-caspase-3, which are hallmarks of apoptosis.
(§5) A549 cells (1 × 10^5/well) were cultured in six-well plates overnight and treated in triplicate with vehicle DMSO (0.1%, v/v) alone, or with indicated compound at 3 μM for 24 h. The cells were harvested and lysed with cell lysis buffer containing protease and phosphatase inhibitor cocktails (Beyotime, Shanghai, China). The concentrations of protein were determined using a BCA protein assay kit (Beyotime, Shanghai, China) and equalized before loading. Samples were denatured and subjected to SDS-PAGE gels followed by transfer to PVDF membrane and probed with specific antibodies against cleaved caspase-3, caspase-3, survivin, XIAP, β-actin, and GAPDH (Abcam, Shanghai, China), and then incubated with the secondary antibodies diluted in TBST. Finally, the protein bands were detected with ECL Western Blotting Kit according to the manufacturer’s specifications. Eventually, films were obtained and the light density of the target bar was analyzed by Image J software.
Background: In western blotting, separated proteins are transferred to a membrane and probed.

For test [6], the system named is XIAP. Put plainly: Western blot, XIAP expression in A549 cells. The test is classed as cell-based, human. The following applies: 3 μM, 24 h, GAPDH as control. The protocol:
(§6) The X-linked mammalian inhibitor of apoptosis protein (XIAP) and survivin, known as the inhibitor-of-apoptosis protein (IAP) members, play an important regulatory role in the caspase-dependent apoptosis. Therefore, the Western blot assay experiments were further performed to examine whether the inhibition of XIAP and survivin were involved in compounds 1–3 induced apoptosis.
as §5

Test [7] relates to caspase-3. Put plainly: Western blot, caspase-3 level in A549 cells. It counts as cell-based, human. The following applies: 3 μM, 24 h, β-actin as control. The protocol: as §4, §5
Test [8] concerns survivin. The experiment in a line: Western blot, survivin expression in A549 cells. The test is classed as cell-based, human. The note with it: 3 μM, 24 h, GAPDH as control. Here is the method:
as §6, §5

In test [9] the test system is A549 cells. The experiment in a line: Cell cycle analysis, PI staining and flow cytometry. The test is classed as cell-based, human. The note with it: 24 h. Here is the method:
In addition to apoptosis, the induction of cell cycle arrest is an important means to control the growth and development of cancer cells. To investigate whether 3 suppressed the cells’ growth by arresting the cell cycle, we performed the experiment where cell cycle distribution was analyzed with flow cytometry after staining the DNA with propidium iodide (PI).
A549 cells were treated with vehicle control (i.e., 1% DMSO in buffer) or compound 3 at indicated concentration for 24 h, respectively. The cells were harvested, washed, then fixed with 70% ethanol at −20 °C for 8 h, and incubated with PI/RNase staining buffer (BD Pharmingen) for 15 min at room temperature (25 °C). The DNA content in the different groups of cells was assessed with flow cytometry and analyzed by the software MODFIT.

The mark [10] stands for this setting: Homo sapiens, NCI-H1299, 24 h treatment.
[11] abbreviates: Homo sapiens, MRC5, 24 h treatment.
[12] abbreviates: Homo sapiens, A549, 24 h treatment.

Where only a bound is given, the exact number is not on record here.

Consider `O=C1C[C@@H](c2ccc(Oc3c(-c4ccc(O)cc4)oc4cc(O)cc(O)c4c3=O)cc2)Oc2cc(O)cc(O)c21` [Compound 1, (2″S)-2″,3″-dihydrodelicaflavone], for which the “apoptosis incidence in A549 cells” value in test [1] is on record as 41.3%. Further, the IC50 was 7.3 µM in test [2] (setting [10]), above 100 µM in [3] (setting [11]) and 3.1 µM in test [4] (setting [12]).

With `Cc1c(O)cc2oc(-c3ccc(Oc4c(-c5ccc(O)cc5)oc5cc(O)cc(O)c5c4=O)cc3)cc(=O)c2c1O` [Compound 2, 6″-methyldelicaflavone], the “apoptosis incidence in A549 cells” value in test [1] is 80.3%. Also, the figures for the IC50 in test [2] (setting [10]), in test [3] (setting [11]) and in test [4] (setting [12]) were 7.3 µM, above 100 µM and 2.8 µM, respectively.

With `COc1cc(O)c2c(=O)c(Oc3ccc(-c4cc(=O)c5c(O)cc(O)cc5o4)cc3)c(-c3ccc(O)cc3)oc2c1` [Compound 3, 7-O-methyldelicaflavone], the “apoptosis incidence in A549 cells” value in [1] was 82.4%. Besides, the 50% inhibitory concentration (IC50) was 4 µM in test [2] (setting [10]), above 100 µM in test [3] (setting [11]) and 2.3 µM in test [4] (setting [12]). In addition, in test [5], the “relative level of cleaved caspase-3” value is on record as “upregulation”. Besides, the “level of XIAP expression” value in [6] is given as “suppressed”. Further, in test [7], the “relative level of caspase-3” value is “upregulation”. The “level of survivin expression” value in [8] is recorded as “suppressed”. The “G0/G1-phase cells (gate C in Figure 9A)” value in [9] (5 μM, control 60.8%) amounted to 45.3%. In test [9], the “cell cycle arrest, phase” value is recorded as “S phase”. For the same compound, the “percentage of cells at the S phase” value in test [9] (control 10.6%, concentration not in the sentence (5 μM by Figure 9)) came to 24.8%.

As to `Cc1c(O)cc2c(c1O)C(=O)C[C@@H](c1ccc(Oc3c(-c4ccc(O)cc4)oc4cc(O)cc(O)c4c3=O)cc1)O2` [Compound 4, (2″S)-6″-methyl-2″,3″-dihydrodelicaflavone], the IC50 in [2] (setting [10]) worked out at 6.8 µM; in test [3] (setting [11]), 58.2 µM; in test [4] (setting [12]), 3.1 µM.

On to `O=c1cc(-c2ccc(Oc3c(-c4ccc(O)cc4)oc4cc(O)cc(O)c4c3=O)cc2)oc2cc(O)cc(O)c12` [Compound 5, delicaflavone], for which the half-maximal inhibitory concentration (IC50) was 8.4 µM in test [2] (setting [10]), 36.8 µM in test [3] (setting [11]) and 7.9 µM in [4] (setting [12]).

Take `N.N.[Cl][Pt][Cl]` [DDP, Cis-platin, reference compound]: the IC50 is 24.5 µM in test [2] (24 h treatment), 49 µM in test [3] (24 h treatment) and 13.3 µM in test [4] (24 h treatment). Besides, in test [5], the “relative level of cleaved caspase-3” value is reported as “enhanced”. Moreover, the “relative level of caspase-3” value in [7] is given as “enhanced”.
